Assay results taken from paper PMC9400670, “Establishing the selective phospholipid membrane coordination, permeation and lysis properties for a series of ‘druggable’ supramolecular self-associating antimicrobial amphiphiles” (Chemical Science, 2022).
Read-outs that look alike come from different tables or passages of the source.

Key:
[1] = tested on: PG nanodiscs; test: Phospholipid nanodisc 1H NMR CPMG coordination assay, PG nanodiscs; type: binding; conditions: SSA 100 µM
Source text: Finally, to establish how any single SSA structural variation affects the coordination of an individual salt component to the surface of a phospholipid membrane, the binding of the anionic and cationic components of SSAs 5–12 with nanodiscs comprised of PC, PG or the PE : PG mix (Table 2) was studied. Nanodiscs were synthesised from synthetic vesicles of the relevant phospholipid composition. For full synthetic procedures and nanodisc characterisation please see ESI (Section 13). ^†[34,35]
Styrene-maleic acid (SMA) nanodiscs are small biomimetic scaffolds with a hydrodynamic diameter ≈ 10 nm. They consist of a single disc-shaped planar phospholipid bilayer, ‘belted’ in this instance with a synthetic SMA co-polymer. Here nanodiscs of a specific phospholipid composition were titrated against a solution of SSAs 5–12 (0.10 mM) in a sodium phosphate buffer (20 mM) with NaCl (20 mM) at pH 7.4. This solution was supplemented with 5% D2O, to enable NMR locking and 4,4-dimethyl4-silapentane-1-sulfonic acid (DSS – 0.02 mM) to act as an internal standard. The nanodiscs were then titrated against the SSA, while the SSA concentration was maintained as constant, well below the CMC (Table 3).[38] A 1D ^1H NMR with a Carr–Purcell–Meiboom–Gill sequence (CPMG) filter (300 ms),[36,48] modified with a watergate element was then obtained for each experimental data point. The watergate element was used to allow suppression of the water signal, whereas the CPMG filter enabled the suppression of those resonances from molecular species with long correlation times, which in this instance correlate to the signals of those SSAs coordinated to the nanodisc, rather than those which exist as free species in solution. Comparative integration of the resonances corresponding to the SSA cation or anion, standardised against the DSS internal standard, permits the percentage of the individual SSA components coordinated to the phospholipid nanodisc to be established with respect to increasing nanodisc concentration.
However, when considering the 1/EC50 for the SSA cationic component (Fig. 10b), the reverse is true. This is perhaps expected, but nevertheless despite the identical experimental conditions, including the same TBA counter cation across SSAs 5–12, there is a marked difference in the 1/EC50 obtained, where the only difference is the SSA anion present. This is most noticeable for the series of SSA titrations involving the PE : PG mix (Table 2) nanodiscs. The only variation within this set of titrations is the structure of the SSA anion; we therefore conclude that the SSA anion is influencing SSA cation nanodisc coordination events. This observation provides evidence for the presence of further complex interactions informing SSA:nanodisc coordination processes. […]
Data were acquired in endpoint mode. All experiments were repeated in triplicate […]
Nanodisc preparation: Lipid films were resuspended in Buffer (20 mM NaCl, 20 mM NaH 2PO4, pH 7.4) and sonicated for 1 hour, at a 5:1 ratio, SMA was added and incubated at 37 °C for 1 hour. Dialysed overnight in 5 L of the same buffer in 10 KDa cut-off dialysis tubing, concentrated, and underwent gel filtration size exclusion chromatography on a Superdex 200 10/300 GL column (GE Healthcare) in the same buffer, whilst monitoring absorbance at 260 nm. Nanodisc quantification carried out via monitoring of absorbance at 260 nm using a calibration curve.2
1H NMR CPMG: 1H NMR CPMG3,4 spectra were obtained with a Bruker Avance III […] spectrometer equipped with a TCIP cryoprobe at 298 K. Samples were supplemented with 5 % D 2O and 0.02 mM 4,4-dimethyl4-silapentane-1-sulfonic acid (DSS). The standard zgprcpmg pulse sequence from the Bruker library was modified with a watergate element to allow suppressi on of the water signal and was used for all experiments. Although this sequence is readily obtainable, we are happy to provide it on request. The P1 pulses were 9 µs at a power of 7.9 W. Presaturation was applied between […]

[2] = tested on: PC lipid vesicles; test: Synthetic phospholipid vesicle membrane binding assay (fluorescence polarisation), PC vesicles; conditions: lipid vesicles added to SSA (0.15 mM); n = 3; error = standard error; SSA alone set to 100 mP
Method: For intrinsically fluorescent SSAs 5, 6 and 8–12, FP titration experiments enabled the observation of SSA: phospholipid vesicle interactions. Here, an increase in FP value indicates an increase in the apparent size of the SSA as it interacts with the phospholipid vesicle. […]
Fluorescence polarisation: Lipid films were resuspended in Buffer (150 mM KCl, 10 mM HEPES, pH 7.4, 2 mM EGTA) and subjected to 9 freeze-thaw cycles in liquid nitrogen and extruded 20 times through a 200 nm polycarbonate membrane. Black bottom 96-well plates were prepared by serially diluting desired vesicle solution across the plate, the appropriate SSA solution (100 µL, 0.15 mM) was added to each well to give a total well volume of 200 µL. Fluorescent SSA solutions were set to a FP value of 100 mP. Data were acquired in endpoint mode. […]

[3] = concentration of nanodisc coordinating 50 % of the SSA anion, Hill Plot fit, Vmax fixed 100 %, read-out: EC50 PG, anionic SSA component
[4] = concentration of nanodisc coordinating 50 % of the SSA cation, Hill Plot fit, Vmax fixed 100 %, read-out: EC50 PG, cationic SSA component

Compound | EC50 [1, 3] [nM] | EC50 [1, 4] [nM] | increase in FP, PC [2] [mP] | EC50 ([1]; experimental endpoint 4.00 µM nanodisc, read-out: EC50 PG, cationic SSA component) [nM]
Cc1ccc2nc(-c3ccc(NC(=O)NCC(=O)O)cc3)sc2c1 [SSA 11] | 2100 | 2820 | 68 ± 1 | –
O=C(NCS(=O)(=O)O)Nc1ccccc1-c1nc2ccccc2s1 [SSA 5] | – | – | 87 ± 4 | > 4000
Cc1ccc2nc(NC(=O)NCS(=O)(=O)O)sc2c1 [SSA 7] | – | 3420 | – | –
Cc1ccc2nc(-c3ccc(NC(=S)NCS(=O)(=O)O)cc3)sc2c1 [SSA 12] | 290 | 900 | 163 ± 6 | –
Cc1ccc2nc(-c3ccc(NC(=O)NCCCS(=O)(=O)O)cc3)sc2c1 [SSA 10] | 500 | 1160 | 26 ± 1 | –
Cc1ccc2nc(-c3ccc(NC(=O)NCCC(=O)O)cc3)sc2c1 [SSA 9] | 1070 | 2690 | 35 ± 10 | –
Cc1ccc2nc(-c3ccc(NC(=O)NCS(=O)(=O)O)cc3)sc2c1 [SSA 6] | 820 | 2860 | 47 ± 8 | –
O=C(NCS(=O)(=O)O)Nc1ccc(-c2nc3ccccc3s2)cc1 [SSA 8] | – | 3110 | 35 ± 4 | –
